#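 The concentration for 50% growth inhibition is given as GI50. The concentration for full growth arrest is given as TGI.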
# How the values were obtained:
# Assay in all cases: growth of human tumour cells (NCI), 384-well format
# [1] = system: 786-0 renal
# [2] = system: A498 renal
# [3] = system: A549 NSCLC
# [4] = system: ACHN renal
# [5] = system: BT-549 breast
# [6] = system: CAKI-1 renal
# [7] = system: COLO 205 colon
# [8] = system: DU-145 prostate
# [9] = system: EKVX NSCLC
# [10] = system: HCC-2998 colon
# [11] = system: HCT-116 colon
# [12] = system: HCT-15 colon
# [13] = system: HL-60(TB) leukemia
# [14] = system: HOP-62 NSCLC
# [15] = system: HOP-92 NSCLC
# [16] = system: HS 578T breast
# [17] = system: HT29 colon
# [18] = system: IGROV1 ovarian
# [19] = system: K-562 leukemia
# [20] = system: KM12 colon
# [21] = system: LOX IMVI melanoma
# [22] = system: M14 melanoma
# [23] = system: MALME-3M melanoma
# [24] = system: MCF7 breast
# [25] = system: MDA-MB-231 breast
# [26] = system: MDA-MB-435 melanoma
# [27] = system: MDA-MB-468 breast
# [28] = system: MOLT-4 leukemia
# [29] = system: NCI-H226 lung
# [30] = system: NCI-H23 lung
# [31] = system: NCI-H322M lung
# [32] = system: NCI-H460 NSCLC
# [33] = system: NCI-H522 lung
# [34] = system: NCI/ADR-RES ovarian
# [35] = system: OVCAR-3 ovarian
# [36] = system: OVCAR-4 ovarian
# [37] = system: OVCAR-5 ovarian
# [38] = system: OVCAR-8 ovarian
# [39] = system: PC-3 prostate
# [40] = system: RPMI-8226 leukemia
# [41] = system: RXF 393 renal
# [42] = system: SF-268 CNS
# [43] = system: SF-295 CNS
# [44] = system: SF-539 CNS
# [45] = system: SK-MEL-2 melanoma
# [46] = system: SK-MEL-28 melanoma
# [47] = system: SK-MEL-5 melanoma
# [48] = system: SK-OV-3 ovarian
# [49] = system: SN12C renal
# [50] = system: SNB-19 CNS
# [51] = system: SNB-75 CNS
# [52] = system: SR leukemia
# [53] = system: SW-620 colon
# [54] = system: T-47D breast
# [55] = system: TK-10 renal
# [56] = system: U251 glioblastoma
# [57] = system: UACC-257 melanoma
# [58] = system: UACC-62 melanoma
# [59] = system: UO-31 renal
structure (smiles),measurement,setting,value
COc1cc(OC)cc(N(CCNC(C)C)c2ccc3ncc(-c4cnn(C)c4)nc3c2)c1,GI50,[1],2.17 µM
same,TGI,[1],5.11 µM
same,GI50,[2],2.68 µM
same,TGI,[2],8.53 µM
same,GI50,[3],3.73 µM
same,TGI,[3],11.2 µM
same,GI50,[4],2.03 µM
same,TGI,[4],5.45 µM
same,GI50,[5],0.63 µM
same,TGI,[5],5.83 µM
same,GI50,[6],1.59 µM
same,TGI,[6],4.16 µM
same,GI50,[7],4.59 µM
same,TGI,[7],12.6 µM
same,GI50,[8],4.12 µM
same,TGI,[8],14 µM
same,GI50,[9],7.26 µM
same,TGI,[9],15.7 µM
same,GI50,[10],4.52 µM
same,TGI,[10],9.47 µM
same,GI50,[11],2.96 µM
same,TGI,[11],9.31 µM
same,GI50,[12],2.99 µM
same,TGI,[12],10.1 µM
same,GI50,[13],2.51 µM
same,TGI,[13],4.65 µM
same,GI50,[14],4.16 µM
same,TGI,[14],13 µM
same,GI50,[15],2.91 µM
same,TGI,[15],9.38 µM
same,GI50,[16],1.5 µM
same,TGI,[16],3.73 µM
same,GI50,[17],3.97 µM
same,TGI,[17],11.2 µM
same,GI50,[18],2.19 µM
same,TGI,[18],5.78 µM
same,GI50,[19],0.89 µM
same,TGI,[19],2.15 µM
same,GI50,[20],4.88 µM
same,TGI,[20],16.1 µM
same,GI50,[21],2.71 µM
same,TGI,[21],6.09 µM
same,GI50,[22],2.85 µM
same,TGI,[22],7.68 µM
same,GI50,[23],2.27 µM
same,TGI,[23],4.97 µM
same,GI50,[24],7.81 µM
same,TGI,[24],15.3 µM
same,GI50,[25],2.75 µM
same,TGI,[25],8.18 µM
same,GI50,[26],3.49 µM
same,TGI,[26],10.6 µM
same,GI50,[27],2.01 µM
same,TGI,[27],4.47 µM
same,GI50,[28],1.51 µM
same,TGI,[28],2.93 µM
same,GI50,[29],2.57 µM
same,TGI,[29],11 µM
same,GI50,[30],4.66 µM
same,TGI,[30],13.5 µM
same,GI50,[31],3.88 µM
same,TGI,[31],12.9 µM
same,GI50,[32],2.63 µM
same,TGI,[32],7.1 µM
same,GI50,[33],3.44 µM
same,TGI,[33],10.3 µM
same,GI50,[34],3.56 µM
same,TGI,[34],11.8 µM
same,GI50,[35],3.62 µM
same,TGI,[35],13.1 µM
same,GI50,[36],4.66 µM
same,TGI,[36],17.1 µM
same,GI50,[37],5.47 µM
same,TGI,[37],17 µM
same,GI50,[38],5.09 µM
same,TGI,[38],14.1 µM
same,GI50,[39],3.61 µM
same,TGI,[39],13.1 µM
same,GI50,[40],3.68 µM
same,TGI,[40],12.3 µM
same,GI50,[41],1.02 µM
same,TGI,[41],2.89 µM
same,GI50,[42],4.42 µM
same,TGI,[42],15.9 µM
same,GI50,[43],9.3 µM
same,TGI,[43],18.3 µM
same,GI50,[44],0.946 µM
same,TGI,[44],7.77 µM
same,GI50,[45],2.15 µM
same,TGI,[45],4.8 µM
same,GI50,[46],6.2 µM
same,TGI,[46],16.4 µM
same,GI50,[47],1.66 µM
same,TGI,[47],3.66 µM
same,GI50,[48],2.01 µM
same,TGI,[48],5.35 µM
same,GI50,[49],3.19 µM
same,TGI,[49],10.8 µM
same,GI50,[50],9.29 µM
same,TGI,[50],22 µM
same,GI50,[51],0.132 µM
same,TGI,[51],1.69 µM
same,GI50,[52],1.57 µM
same,TGI,[52],2.94 µM
same,GI50,[53],4.34 µM
same,TGI,[53],14.2 µM
same,GI50,[54],6.41 µM
same,TGI,[54],12.6 µM
same,GI50,[55],2.79 µM
same,TGI,[55],10.1 µM
same,GI50,[56],5.92 µM
same,TGI,[56],14.8 µM
same,GI50,[57],2.28 µM
same,TGI,[57],4.72 µM
same,GI50,[58],3.49 µM
same,TGI,[58],12.4 µM
same,GI50,[59],3.04 µM
same,TGI,[59],8.81 µM

# — PubChem BioAssay (NCI)
